The values below come from patent US4935529A, “Cytoxic substances from the marine cyanophyte hormothamnion enteromorphoides grunow” (State of Oregon acting by and through the Oregon State …, priority 1989, dated 1990).

≈ marks a conversion by molar mass, not a printed value. Entries after “also recorded” stand apart in the source; their conditions may differ.

In data set [1] the test system is HL-60. The experiment in a line: Inhibition of cell growth, HL-60. The format is cell-based, human. The method, then: (§1) Inhibition of Cell Growth and Macromolecule Biosynthesis in -Several
(§2) Cancerous Human Cell Lines by Hormothamnione (1)
(§3) ^a ID50 is the drug concentration required to inhibit cell growt
(§4) to 50% of control levels.
(§5) Macromolecule biosynthesis in the presence of hormothamnion was measured via radioactive precursor incorporation studies using HL-60 and KB cell lines.

Data set [2] concerns RNA synthesis. The data set is described as follows: Macromolecule biosynthesis: inhibition of RNA synthesis (mode of action). The format is cell-based, human. The note with it: in words. The protocol:
(§6) ^b The percentages of macromolecule biosynthesis inhibition were
(§7) calculated from the specific activities of incorporated precursors (c-e)
(§8) into 10^6 cells in drug treated as versus control cells. ID50
(§9) values were obtained by plotting the logarithmic drug concentrations
(§10) against the percentage inhibition of macromolecule biosynthesis.
(§11) ^d Exponentially growing cells pulse labeled with 2 μCi [5^3
(§12) Huridine (28 Ci/mmole) per ml of cell suspension.
as §5

Data set [3] relates to Protein synthesis, KB. The data set is described as follows: Inhibition of protein biosynthesis in KB (3H-L-leucine incorporation). The format is cell-based. Particulars: Homo sapiens, 3H-L-leucine pulse label, read-out: ID50 Protein. The method, then: as §6, §7, §8, §9, §10
(§13) ^e Exponentially growing cells pulse labeled with 1 μCi of ^3
(§14) HL-leucine (130 Ci/mmole) per ml of cell suspension.
as §5

Data set [4] deals with RNA synthesis, KB. The experiment in a line: Inhibition of RNA biosynthesis in KB (5-3H-uridine incorporation). The format is cell-based. The note with it: Homo sapiens, 5-3H-uridine pulse label, read-out: ID50 RNA. The protocol: as §6, §7, §8, §9, §10, §11, §12, §5
Data set [5] concerns DNA synthesis, HL-60. The experiment in a line: Inhibition of DNA biosynthesis in HL-60 (3H-thymidine incorporation). The format is cell-based. The note with it: Homo sapiens, 3H-thymidine pulse label, read-out: ID50 DNA. The method, then:
as §6, §7, §8, §9, §10
(§15) ^c Exponentially growing cells pulse labeled with 1 μCi of ^3
(§16) Hthymidine (16.6 Ci/mmole) per ml of cell suspension.
as §5
In general terms: Uptake of a labelled nucleoside into DNA is a usual measure of proliferation.

The subject of data set [6] is several human cell lines. The experiment in a line: Cytotoxicity / growth inhibition of several human cell lines. The format is cell-based. Particulars: in words.
In data set [7] the test system is Protein synthesis, HL-60. The experiment in a line: Inhibition of protein biosynthesis in HL-60 (3H-L-leucine incorporation). The format is cell-based. The note with it: Homo sapiens, 3H-L-leucine pulse label, read-out: ID50 Protein. The method, then:
as §6, §7, §8, §9, §10, §13, §14, §5

Data set [8] has as its system Bacillus subtilus. The data set is described as follows: Paper disc-agar plate antimicrobial test. The format is cell-based.
In data set [9] the test system is P-388. The data set is described as follows: Inhibition of cell growth, P-388. The format is cell-based. The protocol:
as §1, §2, §3, §4, §5

The test system of data set [10] is gram positive. The data set is described as follows: Gram positive antimicrobial activity. The format is cell-based. Particulars: in words.
Data set [11] concerns RNA synthesis, HL-60. The data set is described as follows: Inhibition of RNA biosynthesis in HL-60 (5-3H-uridine incorporation). The format is cell-based. Particulars: Homo sapiens, 5-3H-uridine pulse label, read-out: ID50 RNA. The protocol:
as §6, §7, §8, §9, §10, §11, §12, §5

Data set [12] has as its system DNA synthesis, KB. The data set is described as follows: Inhibition of DNA biosynthesis in KB (3H-thymidine incorporation). The format is cell-based. Particulars: Homo sapiens, 3H-thymidine pulse label, read-out: ID50 DNA. The method, then: as §6, §7, §8, §9, §10, §15, §16, §5
Data set [13] can be described thus: Solubility properties. The format is physicochemical. Particulars: relative to the natural product; in words.

With `COc1c(OC)c(O)c2c(=O)c(C)c(/C=C/c3cc(O)cc(O)c3)oc2c1OC` [hormothamnion], the IC50 is 0.0001 µg/mL (≈ 0.00025 µM) in data set [1] (Homo sapiens, read-out: ID50 Cell Growth); over 0.5 µg/mL in [3]; 0.14 µg/mL (≈ 0.35 µM) in data set [4]; 0.3 µg/mL (≈ 0.749 µM) in data set [5]; over 0.5 µg/mL in data set [7]; 0.0046 µg/mL (≈ 0.0115 µM) in [9] (P388, P-388, read-out: ID50 Cell Growth). For the same compound, the IC50 in data set [11] amounted to 0.001 µg/mL (≈ 0.0025 µM); in data set [12], 0.53 µg/mL (≈ 1.32 µM). The “cytotoxic agent to HL-60 human promyelocytic leukemia” value in data set [1] (in words) is given as “potent”. The results for the “inhibition of RNA synthesis (mode of cytotoxic action)” value in [2] and in [2] (listed as Hormothamnion) were “appears to operate via inhibition of RNA synthesis; also recorded: A major mode of cytotoxic action of hormothamnion appears to be by inhibition of RNA synthesis” and “selective inhibition of RNA synthesis”, respectively. Besides, the “cytotoxin to several human cancerous cell lines” value in [6] is on record as “potent cytotoxin”. The zone of inhibition (usually the extent of the growth-free halo in a diffusion test) at 25 µg/disc in [8] (25 μg per 6 mm paper disc) came to 8 mm. This compound also gave a zone of inhibition at 100 µg/disc in [8] (100 μg per 6 mm paper disc) of 10 mm. The “cytotoxic agent to P388 lymphocytic leukemia” value in data set [9] (in words) is given as “potent”. The “gram positive antimicrobial activity” value in [10] is listed as “minimal”.
For `COc1c(OC)c(OC(C)=O)c2c(=O)c(C)c(/C=C/c3cc(OC(C)=O)cc(OC(C)=O)c3)oc2c1OC` [derivative (2)], the solubility properties entry in data set [13] is listed as “more favorable”.
With `COc1cc(O)c2c(=O)c(C)c(/C=C/c3cc(O)cc(O)c3)oc2c1OC` [compound of formula (3)], the “inhibited the growth of several human cell lines” value in data set [6] is on record as “inhibited the growth of several human cell lines”. The “effect on growth compared with hormothamnion” value in [6] (relative to hormothamnion) is recorded as “less than observed with hormothamnion”.
